What was measured:
Format in all cases: in vivo
[1] = system: field corn (Zea mays L., var. Dekalb 535, CORN); test: Pre-emerge test, crop safety; settings: pre-emerge, 14 days after application; for phytotoxicity rating CORN: rating scale 0-100; for phytotoxicity rating CORN (crop damage): scale 0-100
Summary of the method: (§1)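 Sandy loam pots; pre-emerge: sown 1 d pre-spray, surface-watered after, then bottom-watered. Post-emerge: sown 8–21 d before, 2–3 leaf stage, + 0.25% v/v NIS, bottom-watered. Acetone, 187 l/ha track spray, 15–1000 g ai/ha. 0–100 injury score, day 14.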

[2] = system: upland rice (Oryza sp., var. Tebonnet, RICE); test: Pre-emerge test, crop safety; settings: pre-emerge, 14 days after application; for phytotoxicity rating RICE: rating scale 0-100; for phytotoxicity rating RICE (crop damage): scale 0-100
Summary of the method: as §1

[3] = system: field corn (Zea mays L., var. Dekalb 535, CORN); test: Post-emerge test, crop safety; settings: post-emerge, 14 days after application, rating scale 0-100
Summary of the method: as §1

[4] = system: upland rice (Oryza sp., var. Tebonnet, RICE); test: Post-emerge test, crop safety; settings: post-emerge, 14 days after application, rating scale 0-100
Summary of the method: as §1

[5] = system: barnyardgrass (Echinochloa crus-galli, ECHCG); test: Post-emerge test, greenhouse herbicide activity screening; settings: post-emerge, 14 days after application, rating scale 0-100
Summary of the method: (§2)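 Rating: 0–100 visual injury, 14 DAA. Application: acetone, 187 l/ha, 15–1000 g ai/ha, flat-fan track sprayer with nozzle 40–45 cm above soil or canopy. Post-emerge runs used 0.25% v/v surfactant on 2–3 leaf plants.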

[6] = system: ivyleaf morningglory (Ipomoea hederacea, IPOHE); test: as above; settings: post-emerge, 14 days after application, rating scale 0-100
Summary of the method: as §2

[7] = system: green foxtail (Setaria viridis, SETVI); test: as above; settings: post-emerge, 14 days after application, rating scale 0-100
Summary of the method: as §2

[8] = system: velvetleaf (Abutilon theophrasti, ABUTH); test: as above; settings: post-emerge, 14 days after application, rating scale 0-100
Summary of the method: as §2

[9] = system: sicklepod (Cassia obtusifolia, CASOB); test: as above; settings: post-emerge, 14 days after application, rating scale 0-100
Summary of the method: as §2

[10] = system: lambsquarters (Chenopodium album, CHEAL); test: as above; settings: post-emerge, 14 days after application, rating scale 0-100
Summary of the method: as §2

[11] = system: large crabgrass (Digitaria sanguinalis, DIGSA); test: as above; settings: post-emerge, 14 days after application, rating scale 0-100
Summary of the method: as §2

[12] = system: redroot pigweed (Amaranthus retroflexus, AMARE); test: as above; settings: post-emerge, 14 days after application
Summary of the method: as §2

[13] = system: johnsongrass (Sorghum halepense, SORHA); test: as above; settings: post-emerge, 14 days after application, rating scale 0-100
Summary of the method: as §2

[14] = system: barnyardgrass (Echinochloa crus-galli, ECHCG); test: Pre-emerge test, greenhouse herbicide activity screening; settings: pre-emerge, 14 days after application
Summary of the method: as §1

[15] = system: ivyleaf morningglory (Ipomoea hederacea, IPOHE); test: as above; settings: pre-emerge, 14 days after application
Summary of the method: as §1

[16] = system: green foxtail (Setaria viridis, SETVI); test: as above; settings: pre-emerge, 14 days after application
Summary of the method: as §1

[17] = system: velvetleaf (Abutilon theophrasti, ABUTH); test: as above; settings: pre-emerge, 14 days after application
Summary of the method: as §1

[18] = system: sicklepod (Cassia obtusifolia, CASOB); test: as above; settings: pre-emerge, 14 days after application
Summary of the method: as §1

[19] = system: lambsquarters (Chenopodium album, CHEAL); test: as above; settings: pre-emerge, 14 days after application
Summary of the method: as §1

[20] = system: large crabgrass (Digitaria sanguinalis, DIGSA); test: as above; settings: pre-emerge, 14 days after application
Summary of the method: as §1

[21] = system: johnsongrass (Sorghum halepense, SORHA); test: as above; settings: pre-emerge, 14 days after application
Summary of the method: as §1

[22] = system: redroot pigweed (Amaranthus retroflexus, AMARE); test: as above; settings: pre-emerge, 14 days after application
Summary of the method: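 Compounds in acetone were track-sprayed at 187 l/ha, 15–1000 g ai/ha, onto sandy loam pots. Pre-emerge seeds were sown one day before spraying, with surface watering afterwards. Post-emerge plants were at the 2–3 leaf stage and sprayed with 0.25% v/v non-ionic surfactant. Injury was rated 0–100 at 14 days.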

[23] = 250 g ai/ha, rating scale 0-100

## COc1c(Cl)cc(F)c(-n2c(=O)cc(C(F)(F)F)n(C)c2=O)c1NN=C(C)C [15-12]
[1]; 63 g ai/ha
  phytotoxicity rating CORN: 100
[1]; 250 g ai/ha
  phytotoxicity rating CORN: 100
[2]; 63 g ai/ha
  phytotoxicity rating RICE: 99
[2]; 250 g ai/ha
  phytotoxicity rating RICE: 100
[3]; 63 g ai/ha
  Post-emerge Herbicidal Activity CORN (crop damage rating): 80
[3]; 250 g ai/ha
  Post-emerge Herbicidal Activity CORN (crop damage rating): 95
[4]; 63 g ai/ha
  Post-emerge Herbicidal Activity RICE (crop damage rating): 80
[4]; 250 g ai/ha
  Post-emerge Herbicidal Activity RICE (crop damage rating): 99
[5]; 63 g ai/ha
  Post-emerge Herbicidal Activity ECHCG (phytotoxicity rating): 70
[5]; 250 g ai/ha
  Post-emerge Herbicidal Activity ECHCG (phytotoxicity rating): 100
[6]; 63 g ai/ha
  Post-emerge Herbicidal Activity IPOHE (phytotoxicity rating): 100
[6]; 250 g ai/ha
  Post-emerge Herbicidal Activity IPOHE (phytotoxicity rating): 100
[7]; 63 g ai/ha
  Post-emerge Herbicidal Activity SETVI (phytotoxicity rating): 70
[7]; 250 g ai/ha
  Post-emerge Herbicidal Activity SETVI (phytotoxicity rating): 100
[8]; 63 g ai/ha
  Post-emerge Herbicidal Activity ABUTH (phytotoxicity rating): 100
[8]; 250 g ai/ha
  Post-emerge Herbicidal Activity ABUTH (phytotoxicity rating): 100
[9]; 63 g ai/ha
  Post-emerge Herbicidal Activity CASOB (phytotoxicity rating): 90
[9]; 250 g ai/ha
  Post-emerge Herbicidal Activity CASOB (phytotoxicity rating): 100
[10]; 63 g ai/ha
  Post-emerge Herbicidal Activity CHEAL (phytotoxicity rating): 100
[10]; 250 g ai/ha
  Post-emerge Herbicidal Activity CHEAL (phytotoxicity rating): 100
[11]; 63 g ai/ha
  Post-emerge Herbicidal Activity DIGSA (phytotoxicity rating): 95
[11]; 250 g ai/ha
  Post-emerge Herbicidal Activity DIGSA (phytotoxicity rating): 100
[12]; 63 g ai/ha, rating scale 0-100 (0 no damage, 100 complete death)
  Post-emerge Herbicidal Activity AMARE (phytotoxicity rating): 95
[12]; [23]
  Post-emerge Herbicidal Activity AMARE (phytotoxicity rating): 100
[13]; 63 g ai/ha
  Post-emerge Herbicidal Activity SORHA (phytotoxicity rating): 80
[13]; 250 g ai/ha
  Post-emerge Herbicidal Activity SORHA (phytotoxicity rating): 99
[14]; 63 g ai/ha, rating scale 0-100
  phytotoxicity rating ECHCG: 100
[14]; [23]
  phytotoxicity rating ECHCG: 100
[15]; 63 g ai/ha, rating scale 0-100
  phytotoxicity rating IPOHE: 100
[15]; [23]
  phytotoxicity rating IPOHE: 100
[16]; 63 g ai/ha, rating scale 0-100
  phytotoxicity rating SETVI: 100
[16]; [23]
  phytotoxicity rating SETVI: 100
[17]; 63 g ai/ha, rating scale 0-100
  phytotoxicity rating ABUTH: 100
[17]; [23]
  phytotoxicity rating ABUTH: 100
[18]; 63 g ai/ha, rating scale 0-100
  phytotoxicity rating CASOB: 100
[18]; [23]
  phytotoxicity rating CASOB: 100
[19]; 63 g ai/ha, rating scale 0-100
  phytotoxicity rating CHEAL: 100
[19]; [23]
  phytotoxicity rating CHEAL: 100
[20]; 63 g ai/ha, rating scale 0-100
  phytotoxicity rating DIGSA: 100
[20]; [23]
  phytotoxicity rating DIGSA: 100
[21]; 63 g ai/ha, rating scale 0-100
  phytotoxicity rating SORHA: 100
[21]; [23]
  phytotoxicity rating SORHA: 100
[22]; 63 g ai/ha, rating scale 0-100
  phytotoxicity rating AMARE: 100
[22]; [23]
  phytotoxicity rating AMARE: 100

## CCOC(=O)C(C)Oc1ccc(-n2c(=O)cc(C(F)(F)F)n(C)c2=O)c(NC(=O)c2ccc3ccccc3c2)c1 (stereo not shown) [2-146]
[1]; 63 g ai/ha
  phytotoxicity rating CORN (crop damage): 0
[1]; 250 g ai/ha
  phytotoxicity rating CORN (crop damage): 0
[2]; 63 g ai/ha
  phytotoxicity rating RICE (crop damage): 0
[2]; 250 g ai/ha
  phytotoxicity rating RICE (crop damage): 0
[3]; 63 g ai/ha
  CORN phytotoxicity rating (crop damage): 10
[3]; 250 g ai/ha
  CORN phytotoxicity rating (crop damage): 5
[4]; 63 g ai/ha
  RICE phytotoxicity rating (crop damage): 10
[4]; 250 g ai/ha
  RICE phytotoxicity rating (crop damage): 10
[5]; 63 g ai/ha
  ECHCG phytotoxicity rating: 0
[5]; 250 g ai/ha
  ECHCG phytotoxicity rating: 0
[6]; 63 g ai/ha
  IPOHE phytotoxicity rating: 40
[6]; 250 g ai/ha
  IPOHE phytotoxicity rating: 50
[7]; 63 g ai/ha
  SETVI phytotoxicity rating: 0
[7]; 250 g ai/ha
  SETVI phytotoxicity rating: 0
[8]; 63 g ai/ha
  ABUTH phytotoxicity rating: 70
[8]; 250 g ai/ha
  ABUTH phytotoxicity rating: 75
[9]; 63 g ai/ha
  CASOB phytotoxicity rating: 20
[9]; 250 g ai/ha
  CASOB phytotoxicity rating: 50
[10]; 63 g ai/ha
  CHEAL phytotoxicity rating: 30
[10]; 250 g ai/ha
  CHEAL phytotoxicity rating: 40
[11]; 63 g ai/ha
  DIGSA phytotoxicity rating: 0
[11]; 250 g ai/ha
  DIGSA phytotoxicity rating: 0
[12]; 63 g ai/ha, rating scale 0-100
  AMARE phytotoxicity rating: 30
[12]; [23]
  AMARE phytotoxicity rating: 30
[13]; 63 g ai/ha
  SORHA phytotoxicity rating: 0
[13]; 250 g ai/ha
  SORHA phytotoxicity rating: 0
[14]; 63 g ai/ha, scale 0-100
  phytotoxicity rating ECHCG: 0
[14]; 250 g ai/ha, scale 0-100
  phytotoxicity rating ECHCG: 0
[15]; 63 g ai/ha, scale 0-100
  phytotoxicity rating IPOHE: 40
[15]; 250 g ai/ha, scale 0-100
  phytotoxicity rating IPOHE: 20
[16]; 63 g ai/ha, scale 0-100
  phytotoxicity rating SETVI: 0
[16]; 250 g ai/ha, scale 0-100
  phytotoxicity rating SETVI: 0
[17]; 63 g ai/ha, scale 0-100
  phytotoxicity rating ABUTH: 70
[17]; 250 g ai/ha, scale 0-100
  phytotoxicity rating ABUTH: 10
[18]; 63 g ai/ha, scale 0-100
  phytotoxicity rating CASOB: 20
[18]; 250 g ai/ha, scale 0-100
  phytotoxicity rating CASOB: 0
[19]; 63 g ai/ha, scale 0-100
  phytotoxicity rating CHEAL: 90
[19]; 250 g ai/ha, scale 0-100
  phytotoxicity rating CHEAL: 100
[20]; 63 g ai/ha, scale 0-100
  phytotoxicity rating DIGSA: 0
[20]; 250 g ai/ha, scale 0-100
  phytotoxicity rating DIGSA: 0
[21]; 63 g ai/ha, scale 0-100
  phytotoxicity rating SORHA: 0
[21]; 250 g ai/ha, scale 0-100
  phytotoxicity rating SORHA: 0
[22]; 63 g ai/ha, scale 0-100
  phytotoxicity rating AMARE: 30
[22]; 250 g ai/ha, scale 0-100
  phytotoxicity rating AMARE: 80

— patent US6355799B1, “Substituted benzene compounds, process for their preparation, and herbicidal and defoliant compositions containing them” (ISK Americas Incorporated, priority 1997, dated 2002)
